For this assay, the system named is RBL-2H3 cells. Briefly: Histamine release, competitive EIA. To be noted: RBL-2H3 cells treated with A23187, 1 hr. In kind it is cell-based, rat. As to the method:
FIGS. 1A-1F. A15 inhibits BMMC and RBL-2H3 cell degranulation. The structure of alkamide A15 is shown with different functional groups and carbons in the fatty acid chain labeled (FIG. 1A). BMMCs were plated and stimulated 4 hrs later with 1 μM A23187 and the indicated concentrations of A15 or vehicle only. The percent degranulation was measured after 1 hr (FIG. 1B). RBL-2H3 cells were treated with A23187 and the percent degranulation was determined 1 hr later (FIG. 1C) or every 10 min over a 1 hr time course (FIG. 1D). RBL-2H3 cells were plated and incubated for 4 hrs before the media was aspirated and replaced with media containing 1 μg/mL IgE anti-DNP. Cells were incubated overnight and washed prior to stimulation. The percent degranulation from RBL-2H3 cells was calculated after stimulation with 50 ng/mL DNP-HSA in combination with the indicated concentrations of A15 or vehicle only after 1 hr (FIG. 1E). RBL-2H3 cells were stimulated for 1 hr in Tyrode's buffer before supernatants were collected and levels of histamine were measured using a competitive inhibition EIA kit (FIG. 1F). Data shown are the means±SEM from 3-4 independent experiments (FIG. 1B, FIG. 1C and FIG. 1F) or the means±SEM of triplicate wells from a representative experiment from 3 independent experiments (FIG. 1D and FIG. 1E). […]

SMILES strings stand for the structures.

As to `CCCCCCC/C=C/C=C/C(=O)NCC(C)C` [A15, (2E,4E)-N-Isobutyldodeca-2,4-dienamide], the release of histamine result is “inhibited the release of the vasoactive amine histamine”.
